Assay results reported in patent US20260028354A1, “TETRAHYDRONAPHTHALENE DERIVATIVES AS ESTROGEN RECEPTOR DEGRADERS” (REGENT OF THE UNIVERSITY OF MICHIGAN, priority 2022, published 2026).

Experiments:
ER = ER (Homo sapiens (Human), UniProt P03372); test: In-cell western blot analysis of ER for "B" compounds; assay type: cell-based; conditions: 16 hours, read-out: ICW DC50
How it was run: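 ER levels given as a percentage of untreated/DMSO-treated wells (100%). Detection used primary antibodies for 2 h at room temperature followed by 680 and 800 nm fluorescent secondaries at 1:1000 for 1 h, read by LI-COR imaging.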

[1] = Cell growth assay (WST-8) for "B" compounds; assay type: cell-based; conditions: T47D, T47D cell line; read-out: Cell growth Inhibition in T47D cell line IC50
How it was run: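 Four-day compound exposure of cells plated at 1500/well the day before. Read-out is WST-8 (10%, 2.5 h, 37 °C) absorbance at 450 nm, normalized to vehicle control over three independent repeats.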

Chain of ER (P03372 whole entry): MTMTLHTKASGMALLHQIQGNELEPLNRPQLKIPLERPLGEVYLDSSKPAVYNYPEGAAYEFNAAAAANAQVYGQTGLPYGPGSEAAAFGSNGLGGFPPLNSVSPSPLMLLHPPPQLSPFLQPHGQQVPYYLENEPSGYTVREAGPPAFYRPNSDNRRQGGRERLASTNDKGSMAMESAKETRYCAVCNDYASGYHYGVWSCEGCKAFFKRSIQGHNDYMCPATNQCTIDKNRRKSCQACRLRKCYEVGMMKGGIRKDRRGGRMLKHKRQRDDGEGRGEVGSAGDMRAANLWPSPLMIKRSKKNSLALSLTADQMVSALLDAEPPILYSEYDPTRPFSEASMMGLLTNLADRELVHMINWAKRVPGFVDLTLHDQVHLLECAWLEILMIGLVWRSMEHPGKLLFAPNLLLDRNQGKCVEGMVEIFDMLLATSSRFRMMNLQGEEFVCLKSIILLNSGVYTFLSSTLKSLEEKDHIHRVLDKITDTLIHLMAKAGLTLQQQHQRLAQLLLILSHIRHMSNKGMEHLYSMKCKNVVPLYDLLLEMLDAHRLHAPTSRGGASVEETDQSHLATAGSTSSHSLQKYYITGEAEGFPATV

| Structure (SMILES) | DC50 (ER) | IC50 [1] |
| --- | --- | --- |
| O=C1CCC(N2Cc3c(ccc4c3OC[C@H]3CN(CC5CC6(CCN(c7ccc([C@@H]8c9ccc(O)cc9CC[C@@H]8c8ccccc8)cc7)C6)C5)CCN43)C2=O)C(=O)N1 (stereo partly drawn) [Compound B232, 3-((R)-7-((6-(4-((1R,2S)-6-hydroxy-2-phenyl-1,2,3,4-tetrahydronaphthalen-1-yl)phenyl)-6-azaspiro[3.4]octan-2-yl)methyl)-1-oxo-1,3,5,5a,6,7,8,9-octahydro-2H-pyrazino[1′,2′:4,5][1,4]oxazino[2,3-e]isoindol-2-yl)piperidine-2,6-dione] | > 100 nM | 1 to 10 nM |
| O=C1CCC(N2Cc3cc4c(cc3C2=O)OC[C@@H]2CN(CC3CC5(CCN(c6ccc([C@@H]7c8ccc(O)cc8CC[C@@H]7c7ccccc7)cc6)C5)C3)CCN42)C(=O)N1 (stereo partly drawn) [Compound B233, 3-((S)-3-((6-(4-((1R,2S)-6-hydroxy-2-phenyl-1,2,3,4-tetrahydronaphthalen-1-yl)phenyl)-6-azaspiro[3.4]octan-2-yl)methyl)-8-oxo-1,2,3,4,4a,5,8,10-octahydro-9H-pyrazino[1′,2′:4,5][1,4]oxazino[2,3-f]isoindol-9-yl)piperidine-2,6-dione] | > 100 nM | 1 to 10 nM |
| O=C1CCC(N2C(=O)c3cc4c(cc3C2=O)CN(CC2COC3(CCN(c5ccc([C@@H]6c7ccc(O)cc7CC[C@@H]6c6ccccc6)cc5)CC3)C2)C4)C(=O)N1 (stereo partly drawn) [Compound B235, 2-(2,6-dioxopiperidin-3-yl)-6-((8-(4-((1R,2S)-6-hydroxy-2-phenyl-1,2,3,4-tetrahydronaphthalen-1-yl)phenyl)-1-oxa-8-azaspiro[4.5]decan-3-yl)methyl)-6,7-dihydropyrrolo[3,4-f]isoindole-1,3(2H,5H)-dione] | > 100 nM | 1 to 10 nM |
| O=C1CCC(N2Cc3cc4c(cc3C2=O)OC[C@@H]2CN(CC3COC5(CCN(c6ccc([C@@H]7c8ccc(O)cc8CC[C@@H]7c7ccccc7)cc6)CC5)O3)CCN42)C(=O)N1 (stereo partly drawn) [Compound B239, 3-((4aS)-3-((8-(4-((1R,2S)-6-hydroxy-2-phenyl-1,2,3,4-tetrahydronaphthalen-1-yl)phenyl)-1,4-dioxa-8-azaspiro[4.5]decan-2-yl)methyl)-8-oxo-1,2,3,4,4a,5,8,10-octahydro-9H-pyrazino[1′,2′:4,5][1,4]oxazino[2,3-f]isoindol-9-yl)piperidine-2,6-dione] | 10 to 100 nM | 1 to 10 nM |
| O=C1CCC(N2Cc3c(ccc4c3N3CCN(CC5CCN(c6ccc([C@@H]7c8ccc(O)cc8CC[C@@H]7c7ccccc7)cc6)CC5)C[C@H]3CO4)C2=O)C(=O)N1 (stereo partly drawn) [Compound B243, 3-((S)-9-((1-(4-((1R,2S)-6-hydroxy-2-phenyl-1,2,3,4-tetrahydronaphthalen-1-yl)phenyl)piperidin-4-yl)methyl)-3-oxo-1,3,7,7a,8,9,10,11-octahydro-2H-pyrazino[1′,2′:4,5][1,4]oxazino[3,2-e]isoindol-2-yl)piperidine-2,6-dione] | 10 to 100 nM | 1 to 10 nM |
| O=C1CCC(N2Cc3c(ccc4c3OC[C@H]3CN(C(=O)CN5CC(Oc6ccc([C@@H]7c8ccc(O)cc8CC[C@@H]7c7ccccc7)cc6)C5)CCN43)C2=O)C(=O)N1 (stereo partly drawn) [Compound B245, 3-((R)-7-(2-(3-(4-((1R,2S)-6-hydroxy-2-phenyl-1,2,3,4-tetrahydronaphthalen-1-yl)phenoxy)azetidin-1-yl)acetyl)-1-oxo-1,3,5,5a,6,7,8,9-octahydro-2H-pyrazino[1′,2′:4,5][1,4]oxazino[2,3-e]isoindol-2-yl)piperidine-2,6-dione] | 10 to 100 nM | < 1 nM |
| O=C1CCC(N2Cc3c(ccc4c3OC[C@H]3CN(CC(=O)N5CC(Oc6ccc([C@@H]7c8ccc(O)cc8CC[C@@H]7c7ccccc7)cc6)C5)CCN43)C2=O)C(=O)N1 (stereo partly shown) [Compound B246] | < 10 nM | < 1 nM |
| O=C1CCC(N2Cc3c(ccc4c3OC[C@@H]3CN(C(=O)CN5CC(Oc6ccc([C@@H]7c8ccc(O)cc8CC[C@@H]7c7ccccc7)cc6)C5)CCN43)C2=O)C(=O)N1 (stereo partly drawn) [Compound B248, 3-((S)-7-(2-(3-(4-((1R,2S)-6-hydroxy-2-phenyl-1,2,3,4-tetrahydronaphthalen-1-yl)phenoxy)azetidin-1-yl)acetyl)-1-oxo-1,3,5,5a,6,7,8,9-octahydro-2H-pyrazino[1′,2′:4,5][1,4]oxazino[2,3-e]isoindol-2-yl)piperidine-2,6-dione] | 10 to 100 nM | < 1 nM |
| O=C1CCC(N2Cc3c(ccc4c3OC[C@H]3CN(C(=O)CN5CC(Nc6ccc([C@@H]7c8ccc(O)cc8CC[C@@H]7c7ccccc7)cc6)C5)CCN43)C2=O)C(=O)N1 (stereo partly drawn) [Compound B250, 3-((R)-7-(2-(3-((4-((1R,2S)-6-hydroxy-2-phenyl-1,2,3,4-tetrahydronaphthalen-1-yl)phenyl)amino)azetidin-1-yl)acetyl)-1-oxo-1,3,5,5a,6,7,8,9-octahydro-2H-pyrazino[1′,2′:4,5][1,4]oxazino[2,3-e]isoindol-2-yl)piperidine-2,6-dione] | 10 to 100 nM | < 1 nM |

Continued, in another order:

| DC50 (ER) | Structure (SMILES) | IC50 [1] |
| --- | --- | --- |
| < 10 nM | O=C1CCC(N2Cc3c(ccc4c3OC[C@H]3CN(CC5COC6(C5)CN(c5ccc([C@@H]7c8ccc(O)cc8CC[C@@H]7c7ccccc7)cc5)C6)CCN43)C2=O)C(=O)N1 (stereo partly drawn) [Compound B230, 3-((5aR)-7-((2-(4-((1R,2S)-6-hydroxy-2-phenyl-1,2,3,4-tetrahydronaphthalen-1-yl)phenyl)-5-oxa-2-azaspiro[3.4]octan-7-yl)methyl)-1-oxo-1,3,5,5a,6,7,8,9-octahydro-2H-pyrazino[1′,2′:4,5][1,4]oxazino[2,3-e]isoindol-2-yl)piperidine-2,6-dione] | < 1 nM |
| 10 to 100 nM | O=C1CCC(N2Cc3cc4c(cc3C2=O)OC[C@@H]2CN(CC3COC5(C3)CN(c3ccc([C@@H]6c7ccc(O)cc7CC[C@@H]6c6ccccc6)cc3)C5)CCN42)C(=O)N1 (stereo partly drawn) [Compound B231, 3-((4aS)-3-((2-(4-((1R,2S)-6-hydroxy-2-phenyl-1,2,3,4-tetrahydronaphthalen-1-yl)phenyl)-5-oxa-2-azaspiro[3.4]octan-7-yl)methyl)-8-oxo-1,2,3,4,4a,5,8,10-octahydro-9H-pyrazino[1′,2′:4,5][1,4]oxazino[2,3-f]isoindol-9-yl)piperidine-2,6-dione] | < 1 nM |
| > 100 nM | CN1C[C@@H]2CN(CC3COC4(CCN(c5ccc([C@@H]6c7ccc(O)cc7CC[C@@H]6c6ccccc6)cc5)CC4)C3)CCN2c2cc3c(cc21)C(=O)N(C1CCC(=O)NC1=O)C3 (stereo partly drawn) [Compound B234, 3-((4aS)-3-((8-(4-((1R,2S)-6-hydroxy-2-phenyl-1,2,3,4-tetrahydronaphthalen-1-yl)phenyl)-1-oxa-8-azaspiro[4.5]decan-3-yl)methyl)-6-methyl-8-oxo-2,3,4,4a,5,6,8,10-octahydropyrazino[1,2-a]pyrrolo[3,4-g]quinoxalin-9(1H)-yl)piperidine-2,6-dione] | < 1 nM |
| 10 to 100 nM | O=C1CC[C@H](NC(=O)c2ccc3c(n2)OC[C@H]2CN(CC4COC5(CCN(c6ccc([C@@H]7c8ccc(O)cc8CC[C@@H]7c7ccccc7)cc6)CC5)C4)CCN32)C(=O)N1 (stereo partly drawn) [Compound B236, (4aR)-N-((S)-2,6-dioxopiperidin-3-yl)-3-((8-(4-((1R,2S)-6-hydroxy-2-phenyl-1,2,3,4-tetrahydronaphthalen-1-yl)phenyl)-1-oxa-8-azaspiro[4.5]decan-3-yl)methyl)-1,2,3,4,4a,5-hexahydropyrazino[1,2-d]pyrido[2,3-b][1,4]oxazine-8-carboxamide] | < 1 nM |
| > 100 nM | CN(C(=O)c1ccc2c(n1)OC[C@H]1CN(CC3COC4(CCN(c5ccc([C@@H]6c7ccc(O)cc7CC[C@@H]6c6ccccc6)cc5)CC4)C3)CCN21)C1CCC(=O)NC1=O (stereo partly drawn) [Compound B237, (4aR)-N-(2,6-dioxopiperidin-3-yl)-3-((8-(4-((1R,2S)-6-hydroxy-2-phenyl-1,2,3,4-tetrahydronaphthalen-1-yl)phenyl)-1-oxa-8-azaspiro[4.5]decan-3-yl)methyl)-N-methyl-1,2,3,4,4a,5-hexahydropyrazino[1,2-d]pyrido[2,3-b][1,4]oxazine-8-carboxamide] | 1 to 10 nM |
| < 10 nM | O=C1CCC(N2Cc3cc4c(cc3C2=O)OC[C@@H]2CN(CC3COC5(CCN(c6ccc([C@@H]7c8ccc(O)cc8CC[C@@H]7c7ccccc7)cc6)CC5)OC3)CCN42)C(=O)N1 (stereo partly drawn) [Compound B242, 3-((S)-3-((9-(4-((1R,2S)-6-hydroxy-2-phenyl-1,2,3,4-tetrahydronaphthalen-1-yl)phenyl)-1,5-dioxa-9-azaspiro[5.5]undecan-3-yl)methyl)-8-oxo-1,2,3,4,4a,5,8,10-octahydro-9H-pyrazino[1′,2′:4,5][1,4]oxazino[2,3-f]isoindol-9-yl)piperidine-2,6-dione] | < 1 nM |
| 10 to 100 nM | CN(C(=O)c1ccc2c(c1)OC[C@H]1CN(CC3CCN(c4ccc([C@@H]5c6ccc(O)cc6CC[C@@H]5c5ccccc5)cc4)CC3)CCN21)C1CCC(=O)NC1=O (stereo partly drawn) [Compound B255, (4aR)-N-(2,6-dioxopiperidin-3-yl)-3-((1-(4-((1R,2S)-6-hydroxy-2-phenyl-1,2,3,4-tetrahydronaphthalen-1-yl)phenyl)piperidin-4-yl)methyl)-N-methyl-1,2,3,4,4a,5-hexahydrobenzo[b]pyrazino[1,2-d][1,4]oxazine-8-carboxamide] | 1 to 10 nM |
| 10 to 100 nM | O=C1CC[C@H](NC(=O)c2ccc3c(c2)OC[C@H]2CN(CC4CCN(c5ccc([C@@H]6c7ccc(O)cc7CC[C@@H]6c6ccccc6)cc5)CC4)CCN32)C(=O)N1 [Compound B256, (R)-N-((S)-2,6-dioxopiperidin-3-yl)-3-((1-(4-((1R,2S)-6-hydroxy-2-phenyl-1,2,3,4-tetrahydronaphthalen-1-yl)phenyl)piperidin-4-yl)methyl)-1,2,3,4,4a,5-hexahydrobenzo[b]pyrazino[1,2-d][1,4]oxazine-8-carboxamide] | 1 to 10 nM |
